Measurements published in patent US10004701B2, “Methods and compositions for treating infection” (UNIVERSITY OF ROCHESTER, priority 2012, dated 2018).
Where a name gives a salt, the structure may show the parent alone. Read-outs that look alike come from different tables or passages of the source.

Assays:
Assay in all cases: AK assay 384-well format, Prestwick library screening
[1] = system: E. faecium; type: cell-based, Enterococcus faecium; conditions: 50 μM final drug concentration; for fold induction at 50 µM: Enterococcus faecium, 3 h
[2] = system: K. pneumoniae; type: cell-based, Klebsiella pneumoniae; conditions: 50 μM final drug concentration; for fold induction at 50 µM: Klebsiella pneumoniae, 3 h
[3] = system: E. cloacae; type: cell-based, Enterobacter cloacae; conditions: 50 μM final drug concentration; for fold induction at 50 µM: Enterobacter cloacae, 3 h
[4] = system: E. coli; type: cell-based, Escherichia coli; conditions: 50 μM final drug concentration; for fold induction at 50 µM: Escherichia coli, 3 h
[5] = system: S. aureus strain USA300-0114; type: cell-based, Staphylococcus aureus; conditions: 50 μM final drug concentration; for fold induction at 50 µM: Staphylococcus aureus, USA300, 3 h
[6] = system: A. baumannii strain 98-37-09; type: cell-based, Acinetobacter baumannii; conditions: 50 μM final drug concentration; for fold induction at 50 µM: Acinetobacter baumannii, 983709, 3 h
[7] = system: P. aeruginosa; type: cell-based, Pseudomonas aeruginosa; conditions: 50 μM final drug concentration; for fold induction at 50 µM: Pseudomonas aeruginosa, 3 h
[8] = planktonic E. faecium, positive cutoff 3-fold increase, read-out: AK-based Prestwick library screening result, E. faecium (fold increase in extracellular AK activity)
[9] = planktonic K. pneumoniae, positive cutoff 3-fold increase, read-out: AK-based Prestwick library screening result, K. pneumoniae (fold increase in extracellular AK activity)
[10] = planktonic E. cloacae, positive cutoff 3-fold increase, read-out: AK-based Prestwick library screening result, E. cloacae (fold increase in extracellular AK activity)
[11] = planktonic E. coli, positive cutoff 3-fold increase, read-out: AK-based Prestwick library screening result, E. coli (fold increase in extracellular AK activity)
[12] = planktonic S. aureus, positive cutoff 3-fold increase, read-out: AK-based Prestwick library screening result, S. aureus (fold increase in extracellular AK activity)
[13] = planktonic A. baumannii, positive cutoff 3-fold increase, read-out: AK-based Prestwick library screening result, A. baumannii (fold increase in extracellular AK activity)
[14] = planktonic P. aeruginosa, positive cutoff 3-fold increase, read-out: AK-based Prestwick library screening result, P. aeruginosa (fold increase in extracellular AK activity)
[15] = planktonic, cutoff for positive 3-fold increase, read-out: AK-based Prestwick Library Screening Results, E. faecium (fold increase in extracellular AK activity)
[16] = planktonic, cutoff for positive 3-fold increase, read-out: AK-based Prestwick Library Screening Results, K. pneumoniae (fold increase in extracellular AK activity)
[17] = planktonic, cutoff for positive 3-fold increase, read-out: AK-based Prestwick Library Screening Results, E. cloacae (fold increase in extracellular AK activity)
[18] = planktonic, cutoff for positive 3-fold increase, read-out: AK-based Prestwick Library Screening Results, E. coli (fold increase in extracellular AK activity)
[19] = planktonic, cutoff for positive 3-fold increase, read-out: AK-based Prestwick Library Screening Results, S. aureus (fold increase in extracellular AK activity)
[20] = planktonic, cutoff for positive 3-fold increase, read-out: AK-based Prestwick Library Screening Results, A. baumannii (fold increase in extracellular AK activity)
[21] = planktonic, cutoff for positive 3-fold increase, read-out: AK-based Prestwick Library Screening Results, P. aeruginosa (fold increase in extracellular AK activity)
[22] = planktonic E. faecium, 384-well, cutoff for positive-scoring molecules 3-fold increase, read-out: AK-based Prestwick Library Screening Results: E. faecium (increase in extracellular AK activity)
[23] = planktonic K. pneumoniae, 384-well, cutoff for positive-scoring molecules 3-fold increase, read-out: AK-based Prestwick Library Screening Results: K. pneumoniae (increase in extracellular AK activity)
[24] = planktonic E. cloacae, 384-well, cutoff for positive-scoring molecules 3-fold increase, read-out: AK-based Prestwick Library Screening Results: E. cloacae (increase in extracellular AK activity)
[25] = planktonic E. coli, 384-well, cutoff for positive-scoring molecules 3-fold increase, read-out: AK-based Prestwick Library Screening Results: E. coli (increase in extracellular AK activity)
[26] = planktonic S. aureus, 384-well, cutoff for positive-scoring molecules 3-fold increase, read-out: AK-based Prestwick Library Screening Results: S. aureus (increase in extracellular AK activity)
[27] = planktonic A. baumannii, 384-well, cutoff for positive-scoring molecules 3-fold increase, read-out: AK-based Prestwick Library Screening Results: A. baumannii (increase in extracellular AK activity)
[28] = planktonic P. aeruginosa, 384-well, cutoff for positive-scoring molecules 3-fold increase, read-out: AK-based Prestwick Library Screening Results: P. aeruginosa (increase in extracellular AK activity)

CC1(C)S[C@@H]2[C@H](NC(=O)[C@H](C(=O)O)c3ccsc3)C(=O)N2[C@H]1C(=O)O [Ticarcillin sodium]
fold induction at 50 µM [1, 8]: 1.2
fold induction at 50 µM [2, 9]: 0.7
fold induction at 50 µM [3, 10]: 1.4
fold induction at 50 µM [4, 11]: 12.8
fold induction at 50 µM [5, 12]: 0.7
fold induction at 50 µM [6, 13]: 2.6
fold induction at 50 µM [7, 14]: 0.8

CCNC1(c2cccs2)CCCCC1=O.Cl (centres unmarked) [Tiletamine hydrochloride]
AK-based Prestwick library screening result, E. faecium (fold increase in extracellular AK activity) ([1]; planktonic E. faecium, […]): 1.0
AK-based Prestwick library screening result, K. pneumoniae (fold increase in extracellular AK activity) ([2]; planktonic K. pneumoniae, […]): 1.1
AK-based Prestwick library screening result, E. cloacae (fold increase in extracellular AK activity) ([3]; planktonic E. cloacae, […]): 1.4
AK-based Prestwick library screening result, E. coli (fold increase in extracellular AK activity) ([4]; planktonic E. coli, […]): 1.2
AK-based Prestwick library screening result, S. aureus (fold increase in extracellular AK activity) ([5]; planktonic S. aureus, […]): 1.1
AK-based Prestwick library screening result, A. baumannii (fold increase in extracellular AK activity) ([6]; planktonic A. baumannii, […]): 1.6
AK-based Prestwick library screening result, P. aeruginosa (fold increase in extracellular AK activity) ([7]; planktonic P. aeruginosa, […]): 1.1

CCS(=O)(=O)CCn1c([N+](=O)[O-])cnc1C [Tinidazole]
fold induction at 50 µM ([1]; planktonic, cutoff for positive-scoring molecules 3-fold increase, read-out: AK-based Prestwick Library Screening Results, E. faecium (fold increase in extracellular AK activity)): 0.9
fold induction at 50 µM ([2]; planktonic, cutoff for positive-scoring molecules 3-fold increase, read-out: AK-based Prestwick Library Screening Results, K. pneumoniae (fold increase in extracellular AK activity)): 0.8
fold induction at 50 µM ([3]; planktonic, cutoff for positive-scoring molecules 3-fold increase, read-out: AK-based Prestwick Library Screening Results, E. cloacae (fold increase in extracellular AK activity)): 1.5
fold induction at 50 µM ([4]; planktonic, cutoff for positive-scoring molecules 3-fold increase, read-out: AK-based Prestwick Library Screening Results, E. coli (fold increase in extracellular AK activity)): 1.2
fold induction at 50 µM ([5]; planktonic, cutoff for positive-scoring molecules 3-fold increase, read-out: AK-based Prestwick Library Screening Results, S. aureus (fold increase in extracellular AK activity)): 1.2
fold induction at 50 µM ([6]; planktonic, cutoff for positive-scoring molecules 3-fold increase, read-out: AK-based Prestwick Library Screening Results, A. baumannii (fold increase in extracellular AK activity)): 1
fold induction at 50 µM ([7]; planktonic, cutoff for positive-scoring molecules 3-fold increase, read-out: AK-based Prestwick Library Screening Results, P. aeruginosa (fold increase in extracellular AK activity)): 1.1

NC[C@H]1O[C@H](O[C@H]2[C@H](O)[C@@H](O[C@H]3O[C@H](CO)[C@@H](O)[C@H](N)[C@H]3O)[C@H](N)C[C@@H]2N)[C@H](N)C[C@@H]1O [Tobramycin]
fold induction at 50 µM [1, 15]: 0.9
fold induction at 50 µM [2, 16]: 2
fold induction at 50 µM [3, 17]: 1.5
fold induction at 50 µM [4, 18]: 7.5
fold induction at 50 µM [5, 19]: 1.1
fold induction at 50 µM [6, 20]: 5.7
fold induction at 50 µM [7, 21]: 17.1

Cc1cccc(C)c1NC(=O)C(C)N (centres unmarked) [Tocainide hydrochloride]
fold induction at 50 µM [1, 8]: 1
fold induction at 50 µM [2, 9]: 1.1
fold induction at 50 µM [3, 10]: 1.4
fold induction at 50 µM [4, 11]: 1.2
fold induction at 50 µM [5, 12]: 1.1
fold induction at 50 µM [6, 13]: 1.6
fold induction at 50 µM [7, 14]: 1.1

Cc1c(C)c2c(c(C)c1O)CC[C@@](C)(CCC[C@H](C)CCC[C@H](C)CCCC(C)C)O2 [Tocopherol (R,S)]
AK-based Prestwick Library Screening Results: E. faecium (increase in extracellular AK activity) ([1]; planktonic E. faecium, 384-well, cutoff for positive-scoring molecules 3-fold increase): 0.9
AK-based Prestwick Library Screening Results: K. pneumoniae (increase in extracellular AK activity) ([2]; planktonic K. pneumoniae, 384-well, cutoff for positive-scoring molecules 3-fold increase): 0.4
AK-based Prestwick Library Screening Results: E. cloacae (increase in extracellular AK activity) ([3]; planktonic E. cloacae, 384-well, cutoff for positive-scoring molecules 3-fold increase): 0.4
AK-based Prestwick Library Screening Results: E. coli (increase in extracellular AK activity) ([4]; planktonic E. coli, 384-well, cutoff for positive-scoring molecules 3-fold increase): 0.6
AK-based Prestwick Library Screening Results: S. aureus (increase in extracellular AK activity) ([5]; planktonic S. aureus, 384-well, cutoff for positive-scoring molecules 3-fold increase): 0.4
AK-based Prestwick Library Screening Results: A. baumannii (increase in extracellular AK activity) ([6]; planktonic A. baumannii, 384-well, cutoff for positive-scoring molecules 3-fold increase): 0.4
AK-based Prestwick Library Screening Results: P. aeruginosa (increase in extracellular AK activity) ([7]; planktonic P. aeruginosa, 384-well, cutoff for positive-scoring molecules 3-fold increase): 0.4

CCOC(=O)NNc1nncc2ccccc12 [Todralazine hydrochloride]
fold induction at 50 µM [1, 22]: 0.8
fold induction at 50 µM [2, 23]: 1
fold induction at 50 µM [3, 24]: 1.7
fold induction at 50 µM [4, 25]: 1.3
fold induction at 50 µM [5, 26]: 1.3
fold induction at 50 µM [6, 27]: 1.1
fold induction at 50 µM [7, 28]: 1.1

Cc1ccc(S(=O)(=O)NC(=O)NN2CCCCCC2)cc1 [Tolazamide]
fold induction at 50 µM [1, 15]: 1
fold induction at 50 µM [2, 16]: 1.4
fold induction at 50 µM [3, 17]: 1.6
fold induction at 50 µM [4, 18]: 1.5
fold induction at 50 µM [5, 19]: 1
fold induction at 50 µM [6, 20]: 1.2
fold induction at 50 µM [7, 21]: 1.4

c1ccc(CC2=NCCN2)cc1 [Tolazoline hydrochloride]
fold induction at 50 µM [1, 22]: 1
fold induction at 50 µM [2, 23]: 1
fold induction at 50 µM [3, 24]: 1.5
fold induction at 50 µM [4, 25]: 1.4
fold induction at 50 µM [5, 26]: 1.2
fold induction at 50 µM [6, 27]: 1.3
fold induction at 50 µM [7, 28]: 1.1

CCCCNC(=O)NS(=O)(=O)c1ccc(C)cc1 [Tolbutamide]
fold induction at 50 µM ([1]; 384-well format, cutoff for positive-scoring molecules 3-fold increase, read-out: AK-based Prestwick Library Screening Results, E. faecium (increase in extracellular AK activity)): 1
fold induction at 50 µM ([2]; 384-well format, cutoff for positive-scoring molecules 3-fold increase, read-out: AK-based Prestwick Library Screening Results, K. pneumoniae (increase in extracellular AK activity)): 0.8
fold induction at 50 µM ([3]; 384-well format, cutoff for positive-scoring molecules 3-fold increase, read-out: AK-based Prestwick Library Screening Results, E. cloacae (increase in extracellular AK activity)): 1
fold induction at 50 µM ([4]; 384-well format, cutoff for positive-scoring molecules 3-fold increase, read-out: AK-based Prestwick Library Screening Results, E. coli (increase in extracellular AK activity)): 0.8
fold induction at 50 µM ([5]; 384-well format, cutoff for positive-scoring molecules 3-fold increase, read-out: AK-based Prestwick Library Screening Results, S. aureus (increase in extracellular AK activity)): 0.7
fold induction at 50 µM ([6]; 384-well format, cutoff for positive-scoring molecules 3-fold increase, read-out: AK-based Prestwick Library Screening Results, A. baumannii (increase in extracellular AK activity)): 0.9
fold induction at 50 µM ([7]; 384-well format, cutoff for positive-scoring molecules 3-fold increase, read-out: AK-based Prestwick Library Screening Results, P. aeruginosa (increase in extracellular AK activity)): 0.9

Cc1c(Cl)cccc1Nc1ccccc1C(=O)O [Tolfenamic acid]
fold induction at 50 µM [1, 22]: 1.1
fold induction at 50 µM [2, 23]: 0.8
fold induction at 50 µM [3, 24]: 1.6
fold induction at 50 µM [4, 25]: 1
fold induction at 50 µM [5, 26]: 0.5
fold induction at 50 µM [6, 27]: 1.4
fold induction at 50 µM [7, 28]: 1.2
